Assay results: BindingDB's records for PubMed 3806397 (University of Arizona, 1987)
Where “and” joins values, the source holds several entries; their conditions need not be identical. Equal values may be shown once.

What follows are molecules tested against Beta-arrestin-1 (Oryctolagus cuniculus, UniProt Q95223).
Beta-arrestin-1, sequence (Q95223 whole entry): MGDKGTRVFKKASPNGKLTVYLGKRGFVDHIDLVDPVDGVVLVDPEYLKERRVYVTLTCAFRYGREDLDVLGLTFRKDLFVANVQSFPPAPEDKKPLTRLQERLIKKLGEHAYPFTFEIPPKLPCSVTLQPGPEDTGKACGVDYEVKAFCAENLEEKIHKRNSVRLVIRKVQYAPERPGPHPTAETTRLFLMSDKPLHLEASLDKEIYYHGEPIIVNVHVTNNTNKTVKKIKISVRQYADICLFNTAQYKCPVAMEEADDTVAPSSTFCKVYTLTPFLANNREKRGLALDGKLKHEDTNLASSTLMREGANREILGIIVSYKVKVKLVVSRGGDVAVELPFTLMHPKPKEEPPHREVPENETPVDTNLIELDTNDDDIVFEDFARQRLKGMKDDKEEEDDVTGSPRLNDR

Row | SMILES | Ki
1 | C[N+](C)(C)CCOC(N)=O [(2-Hydroxyethyl)trimethyl ammonium chloride carbamate] | 1.66 µM and > 10 µM
2 | O=C1CCCN1CC#CCN1CCCC1 [1-[4-(2-oxo-pyrrolidin-1-yl)-but-2-ynyl]-pyrrolidinium] | 0.214 µM and 1.56 µM
3 | CC(=O)OCC[N+](C)(C)C [2-acetoxyethyl(trimethyl)ammonium;perchlorate] | 3.23 µM
